Experimental data as given in ChEMBL document CHEMBL3301464, “MMV Malaria Box anti-babesial screening”.

Columns and labels:
[1] = (§1) MMV: Anti-babesial activity assay. Parasite pRBCs at 1% parasitemia were cultivated in 100 ul with 96-well plates at 2.5% and 5% hematocrits. The parasites were cultivated in triplicate for 4 days without replacement of the medium for each concentration of the compound.; format: functional, Babesia bovis
[2] = as §1; format: functional, Babesia bigemina
[3] = as §1; format: functional, Babesia equi
[4] = as §1; format: functional, Babesia caballi

SMILES	IC50 [1] [µM]	IC50 [2] [µM]	IC50 [3] [µM]	IC50 [4] [µM]
CC(C)CCNCC(O)Cn1c2ccccc2c2ccccc21 (configuration not stated)	0.081	0.76	0.84	0.38
CCCCCn1c(=N)n(CC(O)COc2cccc(C)c2)c2ccccc21 (configuration not stated)	0.08	0.1	4.52	5.9
CC(=O)NCCc1nc2ccccc2n1Cc1ccc(C(C)C)cc1	7.96	8.2	1	10
CCOc1ccc(N2C(N)=NC(N)=NC2(C)C)cc1	15.2	5.9	14	2.95
Cc1cc(NC(=O)c2ccc(-c3ccccc3)cc2)no1	0.24	8.54	12.4	0.076
Clc1cc(Br)ccc1-c1ccc(CNCC2CCNCC2)o1	0.33	4.19	5.93	12.4
Cc1ccc2cc3c(N)c4c(C)ccc(C)c4nc3nc2c1	2.63	4.27	4.52	7.26
CCOC(=O)C1(Cc2ccccc2)CCN(Cc2cccc(OC)c2O)CC1	1.2	13.2	15.2	1.39
Fc1ccc2[nH]c3c(NCCCN4CCOCC4)ncnc3c2c1	19.7	17.1	2.88	14.7
O=C(CCc1ccccc1)c1ccccc1OCC(O)CN1CCCCC1 (configuration not stated)	4.52	5.69	10.7	7.26
CCc1ccc(CNCC(O)c2ccccc2)cc1 (configuration not stated)	11.1	7.65	15.2	4.13
OC(Cn1nnc2ccccc21)Cn1c2ccc(Br)cc2c2cc(Br)ccc21 (configuration not stated)	0.1	1.3	12.6	15.9
COc1ccc(-c2cc(=O)oc3c4c(ccc23)OCN(Cc2ccc(F)cc2)C4)cc1	2.95	0.29	14.8	0.071
O=c1nc(C=Cc2ccc(Br)cc2)oc2ccccc12	15.3	10	14.3	13.6
COc1ccc2sc(N(Cc3cccnc3)C(=O)c3ccc(C#N)cc3)nc2c1	13.7	11.9	14.6	6.72
Clc1ccc2c(N3CCCC3)ccnc2c1	7.09	9.15	8.83	6.86
O=C(Nc1ccc(N2CCCCC2)c(Cl)c1)c1ccc(Br)o1	11.9	17.7	18.7	13.9
Cc1cc(NC(=O)C2c3ccccc3C(=O)N(CC(C)C)C2c2cccs2)no1 (configuration not stated)	12.6	2.57	3	13
CCN(CC)c1ccc(NC(=O)c2cccs2)cc1	24.1	17.5	13.4	10
CCCCOC(=O)c1ccc(Nc2cc(C)nc3ccc(OC)cc23)cc1	22.7	10	18.1	17.8
Oc1ccc2ccccc2c1CNc1nc2ccccc2[nH]1	6.81	10	4.37	3.04

SMILES	IC50 [1] [µM]	IC50 [2] [µM]	IC50 [3] [µM]	IC50 [4] [µM]
FC(F)(F)c1cccc(Nc2nc(-c3ccccc3)nc3ncccc23)c1	6.8	4.48	16	12
c1ccc2c(NCCCCCCNc3c4c(nc5ccccc35)CCCC4)c3c(nc2c1)CCCC3	0.99	2.17	0.5	6.31
O=c1c2c([nH]c3ccccc13)CCCC2	2.45	5.93	4.27	4.09
Oc1c2c(nc3cc(-c4ccccc4)nn13)CCCC2	5.5	> 25	0.44	1.29
Nc1ccn([C@@H]2O[C@H](CO)[C@@H](O)[C@H]2O)c(=O)n1 [CYTIDINE]	7.31	19.1	14.1	4.27
CCOc1cc(Br)c(C(C)NC(=O)c2cccc(OC)c2)cc1OCC (configuration not stated)	10	25	12.4	13.3
CC(C)(C)c1ccc(C(=O)Nc2c3c(nn2-c2cccc(Cl)c2)CSC3)cc1	4.21	0.72	8.96	17
CCOc1ccc(Nc2c3ccccc3nc3ccccc23)cc1	0.72	0.1	4.52	7.54
O=C(Nc1ccc(CN2CCOCC2)cc1)c1ccc(-c2ccc(Br)cc2)o1	7.67	11.5	6.8	5.64
CCCc1c(C)nc2ccccc2c1O	15.3	2.96	2.4	3.7
CCOC(=O)C1CCN(C(=O)CN2C(=O)c3ccccc3C2c2c[nH]c3ccccc23)CC1 (configuration not stated)	> 25	25	4.19	5.35
COc1ccc2c(c1)OC(O)(C(F)(F)C(F)(F)F)CC2=O (configuration not stated)	> 25	15.7	17.7	11.8
O=C1CC(O)(C(F)(F)C(F)(F)F)Oc2ccccc21 (configuration not stated)	> 25	16.3	0.65	0.8
c1ccc2c(NCCc3c[nH]c4ccccc34)c3ccccc3nc2c1	0.71	1.03	1.39	0.21
CCOC(=O)c1c(C)n(-c2ccccc2)c2ccc(OC(=O)c3cc(OC)c(OC)c(OC)c3)cc12	18.6	12.6	16.5	5.9
COc1ccc(C(O)(CCC(C)C)C(CN2CCOCC2)c2ccc(Cl)cc2)cc1 (configuration not stated)	0.091	0.068	3.45	14.8
Cc1cc(N2CCCC2)nc(Nc2ccc(NC(=O)CCc3ccccc3)cc2)n1	15.5	13.4	3.02	3.53
COCCNC(=O)c1ccc(OC2CCN(Cc3ccc(F)c(F)c3)CC2)c(Cl)c1	0.27	0.98	17.2	1
CN(C)CCNc1cc(-c2ccccc2)nc2ccccc12	4.65	3.03	0.59	0.1
COc1ccc2nc(C)cc(Nc3cccc(O)c3)c2c1	13.4	25	4.19	> 25
Nc1nc(Nc2cccc(F)c2)nc2ccccc12	0.73	7.65	0.79	6.08

SMILES	IC50 [1] [µM]	IC50 [2] [µM]	IC50 [3] [µM]	IC50 [4] [µM]
Cc1ccc(Nc2nc(N)c3ccccc3n2)cc1Cl	6.31	9.87	16.5	10
O=C(NC1CCN(Cc2ccccc2)CC1)c1cc2nc(-c3ccc(Cl)s3)cc(C(F)(F)F)n2n1	1.42	0.065	13.9	4.13
COc1ccc2c(c1)C1(Nc3ccccc3-c3nc4ccccc4n31)C(=O)N2 (configuration not stated)	16.8	14.2	3.52	3.9
COc1ccc(C2=C(c3ccc(OC)cc3)C3(c4ccccc4)C(=O)C2(c2ccccc2)C2C(=O)N(c4ccc(C)cc4)C(=O)C23)cc1 (configuration not stated)	15.4	14.1	14.2	14.7
O=C(NNc1cc(N2CCCC2)nc(N2CCCC2)n1)c1ccccc1	4.58	13.9	5.3	5.5
CCCc1cc(O)c2c3c(c(=O)oc2c1)CN(C)CC3	23.9	16.4	18.5	7.87
CCOc1cccc2sc(N(Cc3cccnc3)C(=O)C3CCCCC3)nc12	25	21.6	4.77	0.076
O=c1nc(C=Cc2ccc(Cl)cc2)oc2ccccc12	14.3	> 25	8.25	11.5
O=C(Nc1ccc(-c2nc3cc(NC(=O)c4ccc(Cl)cc4)ccc3[nH]2)cc1)c1ccc(Cl)cc1	17	5.09	13.3	9.1
CC(C)(C)c1ccc2c(c1)CN(Cc1ccc(Cl)cc1)CO2	16.5	> 25	12.8	5.9
O=C(Nc1ccc(Cl)cc1C(=O)Nc1ccncc1)c1ccc(Cl)cc1Cl	10	19.7	3.61	5.64
O=C(Nc1ccc(Cl)cc1)N1CCN(c2ccc3nncn3n2)CC1	16.3	1	1.02	16.3
COc1ccccc1C(=O)ON=C(N)Cc1cccc2ccccc12	22.4	19.8	7.65	6.86
O=C(Nc1ccccc1O)c1ccc(Oc2cccc(C(=O)Nc3ccccc3O)c2)cc1	6.45	2.86	4.19	19.4
O=C(Nc1cccc(C2=NCCN2)c1)Nc1cccc(C2=NCCN2)c1 [IMIDOCARB]	0.059	0.5	0.052	0.081
Oc1ccc(Cl)cc1CNc1nc2ccccc2[nH]1	5.38	5.06	4.77	8.03
C=CCc1c(C)nc2ccccc2c1O	6.09	3.57	3.61	11.4
CCc1ccc(Nc2cc(C)nc3nc(C)nn23)cc1	13.5	10	10	0.074
Cc1ccc(C)c(Cn2c(N3CCC(C(=O)NCc4cccs4)CC3)nc3ccccc32)c1	0.13	0.1	10	16.5
CCOC(=O)c1cnc2c(C)cccc2c1Nc1ccc(C(C)=O)cc1	19.6	> 25	12.6	6.08
COc1ccc(C)c2sc(N(Cc3cccnc3)C(=O)c3ccc(C#N)cc3)nc12	0.24	0.55	5.69	15.2
